Assay results reported in patent publication US11504367B2, “Compounds and methods for treating oxalate-related diseases” (OxaluRx, Inc., priority 2019, dated 2022).

Legend:
[1] = biological target: recombinant full-length human hydroxyacid oxidase 1 (HAO1), the equivalents of hGOX (Homo sapiens (Human), UniProt Q9UJM8); experiment: In-vitro human glycolate oxidase (hGOX) assay (Amplex red fluorescence); type: biochemical; conditions: 6 nM recombinant human GO, 85 μM glycolate, 10 min preincubation
recombinant full-length human hydroxyacid oxidase 1 (HAO1), the equivalents of hGOX, sequence (Q9UJM8 whole entry): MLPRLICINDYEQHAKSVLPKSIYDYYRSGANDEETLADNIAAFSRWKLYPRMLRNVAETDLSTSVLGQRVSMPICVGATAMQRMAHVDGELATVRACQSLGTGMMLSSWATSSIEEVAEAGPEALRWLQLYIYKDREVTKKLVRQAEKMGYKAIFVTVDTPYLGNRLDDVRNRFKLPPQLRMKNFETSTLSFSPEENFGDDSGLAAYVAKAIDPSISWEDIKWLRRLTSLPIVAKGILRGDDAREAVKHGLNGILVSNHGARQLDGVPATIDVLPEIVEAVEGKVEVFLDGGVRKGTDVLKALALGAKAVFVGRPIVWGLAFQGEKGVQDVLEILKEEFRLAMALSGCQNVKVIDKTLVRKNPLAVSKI
Method: The in-vitro glycolate oxidase assay was performed using recombinant full-length human hydroxyacid oxidase 1 (HAO1), the equivalents of hGOX. […] Purified HAO1 was dissolved in assay buffer consisting of 10 mM NaCl, 110 mM KCl, 2 mM MgCl2, 50 mM HEPES (pH 7.4), and 0.01% Triton™ X-100.
The plates were incubated for 10 min at room temperature, at which point Amplex red reagent (50 μM) was added.
The fluorescence intensity signal was measured on a VariosKan LUX instrument using an excitation of 560 nm and an emission of 590 nm. The IC50 values were calculated using Graphpad Prism. The fluorescence signal of wells containing only DMSO was defined as 100% GO activity, while the fluorescence signal without the glycolate substrate was defined as 0% GO activity.

[2] = In-vivo pharmacokinetic evaluation (exposure, AUC fold-over Example 1); conditions: male CD-1 mice, 10 mg/kg oral gavage in 20% (2-Hydroxypropyl)-β-cyclodextrin, plasma at 0.5, 2 and 6 hours post-dose; AUC expressed as fold-over Example 1
Method: In-vivo exposure of test compounds was determined in 5-6 week old male CD-1 mice. Mice (n=2/compound) received 10 mg/kg of each compound formulated in 20% (2-Hydroxypropyl)-β-cyclodextrin (10 μL/g) by oral gavage. At 0.5 hours, 2 hours, and 6 hours post-dose, blood samples were collected from the submandibular vein using EDTA as an anticoagulant and stored on ice. Plasma samples were obtained by centrifugation at 4° C. and were analyzed immediately or stored at −20° C. until analysis. Compounds were extracted from mouse plasma with acetonitrile and quantified by LC-MS-MS in the negative ion mode using a standard curve.

IC50 [1] [µM]	AUC Fold over Ex. 1 [2]	SMILES
0.007	0.8	CC#Cc1cccc(Oc2[nH]nnc2C(=O)O)c1 [Example 6, 5-(3-(Prop-1-ynyl)phenoxy)-1H-1,2,3-triazole-4-carboxylic Acid]
0.028	1.6	CC(C)C#Cc1cccc(Oc2[nH]nnc2C(=O)O)c1 [Example 10, 5-(3-(3-Methylbut-1-ynyl)phenoxy)-1H-1,2,3-triazole-4-carboxylic Acid]
0.21	0.2	CC(C)(C)C#Cc1ccc(Oc2[nH]nnc2C(=O)O)cc1 [Example 16, 5-(4-(3,3-Dimethylbut-1-ynyl)phenoxy)-1H-1,2,3-triazole-4-carboxylic Acid]
0.042	1.3	CC(C)(C)C#Cc1cccc(Oc2[nH]nnc2C(=O)O)c1 [Example 17, 5-(3-(3,3-Dimethylbut-1-ynyl)phenoxy)-1H-1,2,3-triazole-4-carboxylic Acid]
0.011	0.8	O=C(O)c1nn[nH]c1Oc1ccc(C#CC2CC2)cc1 [Example 20, 5-(4-(2-Cyclopropylethynyl)phenoxy)-1H-1,2,3-triazole-4-carboxylic Acid]
0.023		O=C(O)c1nn[nH]c1Oc1ccc(C#CC(F)(F)F)cc1 [Example 335, 5-(4-(3,3,3-Trifluoroprop-1-ynyl)phenoxy)-1H-1,2,3-triazole-4-carboxylic Acid]
0.025		O=C(O)c1nn[nH]c1Oc1ccc(C#Cc2ncccn2)cc1 [Example 336, 5-(4-(2-(Pyrimidin-2-yl)ethynyl)phenoxy)-1H-1,2,3-triazole-4-carboxylic Acid]
0.007		O=C(O)c1nn[nH]c1Oc1ccc(C#Cc2cnccn2)cc1 [Example 337, 5-(4-(2-(Pyrazin-2-yl)ethynyl)phenoxy)-1H-1,2,3-triazole-4-carboxylic Acid]
0.004		O=C(O)c1nn[nH]c1Oc1cccc(C#Cc2cnccn2)c1 [Example 338, 5-(3-(2-(Pyrazin-2-yl)ethynyl)phenoxy)-1H-1,2,3-triazole-4-carboxylic Acid]
0.004		O=C(O)c1nn[nH]c1Oc1ccc(C#Cc2cccnn2)cc1 [Example 339, 5-(4-(2-(Pyridazin-3-yl)ethynyl)phenoxy)-1H-1,2,3-triazole-4-carboxylic Acid]
0.003		O=C(O)c1nn[nH]c1Oc1cccc(C#Cc2cccnn2)c1 [Example 340, 5-(3-(2-(Pyridazin-3-yl)ethynyl)phenoxy)-1H-1,2,3-triazole-4-carboxylic Acid]
0.028		O=C(O)c1nn[nH]c1Oc1ccc(C#Cc2nccs2)cc1 [Example 341, 5-(4-(2-(Thiazol-2-yl)ethynyl)phenoxy)-1H-1,2,3-triazole-4-carboxylic Acid]
0.005		O=C(O)c1nn[nH]c1Oc1ccc(C#CCc2ccccc2)cc1 [Example 348, 5-(4-(3-Phenylprop-1-ynyl)phenoxy)-1H-1,2,3-triazole-4-carboxylic Acid]
0.005		O=C(O)c1nn[nH]c1Oc1cccc(C#CCc2ccccc2)c1 [Example 349, 5-(3-(3-Phenylprop-1-ynyl)phenoxy)-1H-1,2,3-triazole-4-carboxylic Acid]
0.01		N#CCCC#Cc1cccc(Oc2[nH]nnc2C(=O)O)c1 [Example 350, 5-(3-(4-Cyanobut-1-ynyl)phenoxy)-1H-1,2,3-triazole-4-carboxylic Acid]
0.02		O=C(O)c1nn[nH]c1Oc1cccc(C#CC2CCC3(CC2)OCCO3)c1 [Example 351, 5-(3-(1,4-Dioxaspiro[4.5]decan-8-ylethynyl)phenoxy)-1H-1,2,3-triazole-4-carboxylic Acid]
0.034		O=C1CCC(C#Cc2cccc(Oc3[nH]nnc3C(=O)O)c2)CC1 [Example 352, 5-(3-((4-Oxocyclohexyl)ethynyl)phenoxy)-1H-1,2,3-triazole-4-carboxylic Acid]
0.003		O=C(O)c1nn[nH]c1Oc1ccc(C#CCc2ccc(F)cc2)cc1 [Example 353, 5-(4-(3-(4-fluorophenyl)prop-1-ynyl)phenoxy)-1H-1,2,3-triazole-4-carboxylic Acid]
0.006		O=C(O)c1nn[nH]c1Sc1ccc(C#CCC2CC2)cc1 [Example 355, 5-(4-(3-Cyclopropylprop-1-ynyl)phenylthio)-1H-1,2,3-triazole-4-carboxylic Acid]
> 1		CCOC(=O)c1nn[nH]c1Oc1cccc(C#CCC2CC2)c1 [Example 357, Ethyl 5-(3-(3-cyclopropylprop-1-ynyl)phenoxy)-1H-1,2,3-triazole-4-carboxylate]

IC50 [1] [µM]	AUC Fold over Ex. 1 [2]	SMILES
> 1		CCOC(=O)c1c(Oc2cccc(C#CCC3CC3)c2)n[nH]c1C [Example 358, Ethyl 3-(3-(3-cyclopropylprop-1-ynyl)phenoxy)-5-methyl-1H-pyrazole-4-carboxylate]
> 1		Cc1[nH]nc(Oc2cccc(C#CCC3CC3)c2)c1C(=O)O [Example 359, 3-(3-(3-Cyclopropylprop-1-ynyl)phenoxy)-5-methyl-1H-pyrazole-4-carboxylic Acid]
> 1		CCOC(=O)c1c(Oc2ccc(C#CCC3CC3)cc2)n[nH]c1C [Example 360, Ethyl 3-(4-(3-cyclopropylprop-1-ynyl)phenoxy)-5-methyl-1H-pyrazole-4-carboxylate]
> 1		Cc1[nH]nc(Oc2ccc(C#CCC3CC3)cc2)c1C(=O)O [Example 361, 3-(4-(3-Cyclopropylprop-1-ynyl)phenoxy)-5-methyl-1H-pyrazole-4-carboxylic Acid]
0.23		O=C(O)c1nn[nH]c1Nc1ccc(C#CCC2CC2)cc1 [Example 362, 5-(4-(3-Cyclopropylprop-1-ynyl)phenylamino)-1H-1,2,3-triazole-4-carboxylic Acid]
0.11		O=C(O)c1nn[nH]c1Nc1cccc(C#CCC2CC2)c1 [Example 363, 5-(3-(3-Cyclopropylprop-1-ynyl)phenylamino)-1H-1,2,3-triazole-4-carboxylic Acid]
0.094		O=C(O)c1nn[nH]c1Cc1ccc(C#CCC2CC2)cc1 [Example 364, 5-(4-(3-Cyclopropylprop-1-ynyl)benzyl)-1H-1,2,3-triazole-4-carboxylic Acid]
0.098		O=C(O)c1nn[nH]c1Cc1cccc(C#CCC2CC2)c1 [Example 365, 5-(3-(3-Cyclopropylprop-1-ynyl)benzyl)-1H-1,2,3-triazole-4-carboxylic Acid]
> 1		CCOC(=O)c1nn[nH]c1Oc1cccc(C#CCC(C)C)c1 [Example 366, Ethyl 5-(3-(4-methylpent-1-ynyl)phenoxy)-1H-1,2,3-triazole-4-carboxylate]
0.009		O=C(O)c1nn[nH]c1Oc1cccc(C#CCC2CC(F)(F)C2)c1 [Example 367, 5-(3-(3-(3,3-Difluorocyclobutyl)prop-1-ynyl)phenoxy)-1H-1,2,3-triazole-4-carboxylic Acid]
> 1		Cn1cc(Oc2[nH]nnc2C(=O)O)cc(C#CCC2CC2)c1=O [Example 368, 5-(5-(3-Cyclopropylprop-1-ynyl)-1,6-dihydro-1-methyl-6-oxopyridin-3-yloxy)-1H-1,2,3-triazole-4-carboxylic Acid]
> 1		O=C(O)c1nonc1Oc1ccc(C#CCC2CC2)cc1 [Example 369, 4-(4-(3-Cyclopropylprop-1-ynyl)phenoxy)-1,2,5-oxadiazole-3-carboxylic Acid]
> 1		O=C(O)c1nonc1Oc1cccc(C#CCC2CC2)c1 [Example 370, 4-(3-(3-Cyclopropylprop-1-ynyl)phenoxy)-1,2,5-oxadiazole-3-carboxylic Acid]
> 1		CCOC(=O)c1nn[nH]c1Oc1cccc(C#CCC(C)(C)C)c1 [Example 371, Ethyl 5-(3-(4,4-dimethylpent-1-ynyl)phenoxy)-1H-1,2,3-triazole-4-carboxylate]
> 1		CC(C)(C)CC#Cc1cccc(Oc2[nH]nnc2C(=O)O)c1 [Example 372, 5-(3-(4,4-Dimethylpent-1-ynyl)phenoxy)-1H-1,2,3-triazole-4-carboxylic Acid]
> 1		CCOC(=O)c1nn[nH]c1[S+]([O-])c1cccc(C#CCC(C)C)c1 (stereo not drawn) [Example 373, Ethyl 5-(3-(4-methylpent-1-ynyl)phenylsulfinyl)-1H-1,2,3-triazole-4-carboxylate]
> 1		CC(C)CC#Cc1cccc([S+]([O-])c2[nH]nnc2C(=O)O)c1 (stereo not drawn) [Example 374, 5-(3-(4-Methylpent-1-ynyl)phenylsulfinyl)-1H-1,2,3-triazole-4-carboxylic Acid]
> 1		CCOC(=O)c1nn[nH]c1S(=O)(=O)c1cccc(C#CCC(C)C)c1 [Example 375, Ethyl 5-(3-(4-methylpent-1-ynyl)phenylsulfonyl)-1H-1,2,3-triazole-4-carboxylate]
> 1		CCOC(=O)c1nn[nH]c1Oc1cccc(C#CCC(C)(C)F)c1 [Example 377, Ethyl 5-(3-(4-fluoro-4-methylpent-1-ynyl)phenoxy)-1H-1,2,3-triazole-4-carboxylate]
0.04		CC(C)(F)CC#Cc1cccc(Oc2[nH]nnc2C(=O)O)c1 [Example 378, 5-(3-(4-Fluoro-4-methylpent-1-ynyl)phenoxy)-1H-1,2,3-triazole-4-carboxylic Acid]
